Results on 22 compounds are retold here after patent US8507690B2, “Thiazole derivative and use thereof as VAP-1 inhibitor” (R-Tech Ueno, Ltd., priority 2008, dated 2013).

The target of series [1] is T1, human VAP-1 enzyme (SSAO) (Homo sapiens, UniProt Q16853).
T1 construct: made in house; cell extract used
T1 sequence (Q16853 1-763): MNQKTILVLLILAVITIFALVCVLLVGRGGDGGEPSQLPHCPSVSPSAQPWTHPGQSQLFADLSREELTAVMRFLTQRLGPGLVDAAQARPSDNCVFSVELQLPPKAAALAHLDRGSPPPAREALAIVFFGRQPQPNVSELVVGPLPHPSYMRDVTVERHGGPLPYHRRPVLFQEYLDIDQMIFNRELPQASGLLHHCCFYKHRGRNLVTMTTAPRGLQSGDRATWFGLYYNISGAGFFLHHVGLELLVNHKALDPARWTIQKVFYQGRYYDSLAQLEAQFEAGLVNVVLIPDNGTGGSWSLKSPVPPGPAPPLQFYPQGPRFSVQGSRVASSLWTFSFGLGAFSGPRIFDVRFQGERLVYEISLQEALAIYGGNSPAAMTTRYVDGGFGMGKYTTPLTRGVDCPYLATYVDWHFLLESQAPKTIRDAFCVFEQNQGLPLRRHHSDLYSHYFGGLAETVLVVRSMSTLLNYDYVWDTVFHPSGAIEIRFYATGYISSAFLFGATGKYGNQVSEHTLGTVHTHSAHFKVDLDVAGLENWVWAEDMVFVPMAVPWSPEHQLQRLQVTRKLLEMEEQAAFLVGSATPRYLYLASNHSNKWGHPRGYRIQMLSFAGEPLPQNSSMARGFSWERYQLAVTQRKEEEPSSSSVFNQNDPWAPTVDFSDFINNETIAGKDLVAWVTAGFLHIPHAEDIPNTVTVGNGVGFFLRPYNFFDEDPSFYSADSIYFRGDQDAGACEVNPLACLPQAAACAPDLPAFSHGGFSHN
The series is described as follows: Enzyme activity inhibitory effect on human VAP-1 enzyme (SSAO), radiochemical-enzyme assay with 14C-benzylamine. It counts as biochemical. To be noted: human VAP-1 (SSAO) cell extract, 14C-benzylamine 1×10^−5 mol/l, 37° C. 2 hours. How it is done:
(§1) The compounds of the present invention obtained in Production Examples were examined for the enzyme activity inhibitory effect on human and rat VAP-1 enzyme (SSAO) by the following method.
(§2) The VAP-1 enzyme (SSAO) activity in both human and rat was measured by a radiochemical-enzyme assay using ^14C-benzylamine as an artificial substrate. Human or rat VAP-1 was cloned from the cDNA library and expressed in a cell. The cell extract was preincubated with a test compound solution (final concentration 1×10^−7-1×10^−11 mol/l) at room temperature for 20 minutes. Then, ^14C-benzylamine (final concentration 1×10^−5 mol/l) was added, and the mixture was incubated at a final volume of 200 μl at 37° C. for 2 hours. The enzyme reaction was stopped by addition of 2 mol/l (200 μl) citric acid. The oxidation product was extracted with 1 ml toluene/ethyl acetate (1:1), and the radioactivity thereof was measured by a liquid scintillation counter.

Another series concerns the target T2, rat VAP-1 enzyme (SSAO) (Rattus norvegicus, UniProt O08590).
T2 construct: made in house; cell extract used
T2 sequence (O08590 1-763): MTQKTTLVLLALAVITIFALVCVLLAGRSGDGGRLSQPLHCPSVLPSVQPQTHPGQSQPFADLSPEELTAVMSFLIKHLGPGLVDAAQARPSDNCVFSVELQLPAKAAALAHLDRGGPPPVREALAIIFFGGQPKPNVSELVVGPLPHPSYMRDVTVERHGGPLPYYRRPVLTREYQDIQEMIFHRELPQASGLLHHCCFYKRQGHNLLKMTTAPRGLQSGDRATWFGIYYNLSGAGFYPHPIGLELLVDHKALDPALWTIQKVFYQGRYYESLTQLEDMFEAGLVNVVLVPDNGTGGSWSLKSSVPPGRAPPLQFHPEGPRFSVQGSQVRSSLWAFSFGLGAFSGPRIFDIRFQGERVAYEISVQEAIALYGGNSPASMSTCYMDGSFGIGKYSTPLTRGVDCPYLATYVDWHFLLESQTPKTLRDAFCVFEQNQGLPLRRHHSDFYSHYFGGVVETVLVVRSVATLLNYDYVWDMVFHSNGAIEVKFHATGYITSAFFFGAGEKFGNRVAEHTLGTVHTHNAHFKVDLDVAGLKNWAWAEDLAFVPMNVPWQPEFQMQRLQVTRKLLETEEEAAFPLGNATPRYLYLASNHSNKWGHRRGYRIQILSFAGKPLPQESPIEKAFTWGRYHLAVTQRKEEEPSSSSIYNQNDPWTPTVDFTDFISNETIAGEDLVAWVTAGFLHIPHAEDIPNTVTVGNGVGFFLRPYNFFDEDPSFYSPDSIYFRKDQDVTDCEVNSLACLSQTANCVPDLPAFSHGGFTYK
Put plainly: Enzyme activity inhibitory effect on rat VAP-1 enzyme (SSAO), radiochemical-enzyme assay with 14C-benzylamine. The class given is biochemical. Conditions: rat VAP-1 (SSAO) cell extract, 14C-benzylamine 1×10^−5 mol/l, 37° C. 2 hours. How it is done:
as §1, §2

SMILES strings stand for the structures. Structures can show the parent of a compound that is named as a salt.

A word on the melting point: it is the temperature of the solid-liquid transition. Broadly, the IC50 is the point on the concentration scale where inhibition reaches its midpoint.

For `CC(=O)Nc1nc(CCc2cccc(OC(=O)NN)c2)cs1` (as salt: hydrochloride), the melting point was 158 to 162 °C.

The compound `CC(=O)Nc1nc(CCc2ccc(CNC(=O)NN)cc2F)cs1` (as salt: hydrochloride) gave a melting point of 165 to 169 °C.

`CC(=O)Nc1nc(CCc2csc(CCCNC(=O)NN)c2)cs1` (as salt: hydrochloride) gave a melting point of 153 to 156 °C.

On to `CC(=O)Nc1nc(CCc2cc(CCCNC(=O)NN)cs2)cs1` (as salt: hydrochloride) [Production Example 32, N-[3-(5-{2-[2-(acetylamino)-1,3-thiazol-4-yl]ethyl}thiophen-3-yl)propyl]hydrazinecarboxamide hydrochloride], for which the melting point fell in the range of 111 to 115 °C.

`CC(=O)Nc1nc(CCc2ccc(CSC(=O)NN)s2)cs1` (as salt: hydrochloride) [Production Example 36, S-[(5-{2-[2-(acetylamino)-1,3-thiazol-4-yl]ethyl}thiophen-2-yl)methyl]hydrazinecarbothioate hydrochloride] showed a melting point of 147 to 153 °C.

Take `CC(=O)Nc1nc(CCc2ccc(OC(=O)NN)cc2)cs1.Cl` [Production Example 1, 4-{2-[2-(acetylamino)-1,3-thiazol-4-yl]ethyl}phenyl hydrazinecarboxylate hydrochloride]: the melting point was 167 to 169 °C. This compound also registered a 50% inhibitory concentration (IC50) in series [1] of 2.5 nM. In addition, the midpoint of inhibition at rat VAP-1 enzyme (SSAO), the IC50, lay at 0.2 nM.

With `CC(=O)Nc1nc(CCc2ccc(COC(=O)NN)cc2)cs1.Cl` [Production Example 2, 4-{2-[2-(acetylamino)-1,3-thiazol-4-yl]ethyl}benzyl hydrazinecarboxylate hydrochloride], the melting point lay within 162 to 164 °C. This compound registered an IC50 in series [1] of 0.9 nM. This compound came in with an IC50 on rat VAP-1 enzyme (SSAO) of 0.7 nM.

The compound `CC(=O)Nc1nc(CCc2ccc(CCOC(=O)NN)cc2)cs1.Cl` [Production Example 3, 2-(4-{2-[2-(acetylamino)-1,3-thiazol-4-yl]ethyl}phenyl)ethyl hydrazinecarboxylate hydrochloride] showed a melting point of 172 to 174 °C. The compound also registered an IC50 in series [1] of 11.7 nM. This compound also registered an IC50 against rat VAP-1 enzyme (SSAO) of 2.3 nM.

For `CC(=O)Nc1nc(CCc2ccc(COC(=O)NN)c(F)c2)cs1.Cl` [Production Example 4, 4-{2-[2-(acetylamino)-1,3-thiazol-4-yl]ethyl}-2-fluorobenzyl hydrazinecarboxylate hydrochloride], the melting point was in the range of 162 to 165 °C. In series [1], the IC50 is 0.8 nM. Half-maximal inhibition at rat VAP-1 enzyme (SSAO) (IC50) required 0.4 nM.

`CC(=O)Nc1nc(CCc2ccc(COC(=O)NN)cc2F)cs1.Cl` [Production Example 5, 4-{2-[2-(acetylamino)-1,3-thiazol-4-yl]ethyl}-3-fluorobenzyl hydrazinecarboxylate hydrochloride] returned a melting point of 204 to 208 °C. For the same compound, in series [1], inhibition was half-maximal at 1.2 nM (IC50). This compound came in with an IC50 on rat VAP-1 enzyme (SSAO) of 1.1 nM.

As for `CC(=O)Nc1nc(CCc2ccc(COC(=O)NN)c(F)c2F)cs1` [Production Example 6, 4-{2-[2-(acetylamino)-1,3-thiazol-4-yl]ethyl}-2,3-difluorobenzyl hydrazinecarboxylate hydrochloride], the half-inhibitory concentration (IC50) in series [1] came out at 1.3 nM; against rat VAP-1 enzyme (SSAO), 0.6 nM.

For the compound `CC(=O)Nc1nc(COc2ccc(CCOC(=O)NN)cc2)cs1` [Production Example 7, 2-(4-{[2-(acetylamino)-1,3-thiazol-4-yl]methoxy}phenyl)ethyl hydrazinecarboxylate], the melting point lay within 177 to 180 °C. Also, the midpoint of inhibition in series [1], the IC50, lay at 57 nM. Also, half-maximal inhibition against rat VAP-1 enzyme (SSAO) (IC50) was put at 7.1 nM.

Regarding `CC(=O)Nc1nc(C(=O)Oc2ccc(CCOC(=O)NN)cc2)cs1.Cl` [Production Example 8, 4-{2-[(hydrazinocarbonyl)oxy]ethyl}phenyl 2-(acetylamino)-1,3-thiazole-4-carboxylate hydrochloride], the melting point was in the range of 179 to 184 °C. Also, the midpoint of inhibition in series [1], the IC50, lay at 6.4 nM. Further, half-maximal inhibition at rat VAP-1 enzyme (SSAO) (IC50) was put at 1.7 nM.

Turning to `CC(=O)Nc1nc(C(=O)Nc2ccc(CCOC(=O)NN)cc2)cs1.Cl` [Production Example 9, 2-[4-({[2-(acetylamino)-1,3-thiazol-4-yl]carbonyl}amino)phenyl]ethyl hydrazinecarboxylate hydrochloride], the melting point was 225 to 233 °C. In series [1], this compound showed an IC50 of 17.1 nM. Also, on rat VAP-1 enzyme (SSAO), half-maximal inhibition (IC50) required 1 nM.

Turning to `CC(=O)Nc1nc(CCc2ccc(COC(=O)NN)s2)cs1` [Production Example 13, {5-[2-(2-acetylamino-1,3-thiazol-4-yl)ethyl]thiophen-2-yl}methyl hydrazinecarboxylate hydrochloride], the results for the IC50 (in series [1]; at rat VAP-1 enzyme (SSAO)) were 3.4 nM and 0.7 nM, respectively.

On to `CC(=O)Nc1nc(CCc2ccc(CCOC(=O)NN)s2)cs1` [Production Example 14, 2-(5-{2-[2-(acetylamino)-1,3-thiazol-4-yl]ethyl}thiophen-2-yl)ethyl hydrazinecarboxylate hydrochloride], for which the IC50 in series [1] is 5.1 nM; at rat VAP-1 enzyme (SSAO), 5.3 nM.

Turning to `CC(=O)Nc1nc(CCc2ccc(CNC(=O)NN)c(F)c2F)cs1` [Production Example 22, N-(4-{2-[2-(acetylamino)-1,3-thiazol-4-yl]ethyl}-2,3-difluorobenzyl)hydrazinecarboxamide hydrochloride], the IC50 in series [1] stood at 5.5 nM; against rat VAP-1 enzyme (SSAO), 2.2 nM.

For the compound `CC(=O)Nc1nc(CNc2ccc(CNC(=O)NN)cc2)cs1` [Production Example 23, N-[4-({[2-(acetylamino)-1,3-thiazol-4-yl]methyl}amino)benzyl]hydrazinecarboxamide dihydrochloride], the IC50 in series [1] worked out at 16.8 nM; on rat VAP-1 enzyme (SSAO) it was 8.4 nM.

Take `CC(=O)Nc1nc(C(=O)Nc2ccc(CNC(=O)NN)cc2)cs1.Cl` [Production Example 24, 2-(acetylamino)-N-(4-{[hydrazinocarbonyl)amino]methyl}phenyl)-1,3-thiazole-4-carboxamide hydrochloride]: the IC50 in series [1] is 7.3 nM; against rat VAP-1 enzyme (SSAO), 1 nM.

Compound `CC(=O)Nc1nc(C(=O)Nc2ccc(CNC(=O)NN)cc2)cs1.Cl` [Production Example 24] showed a melting point of 231 to 234 °C.

For the compound `CC(=O)Nc1nc(COc2ccc(CCNC(=O)NN)cc2)cs1` [Production Example 25, N-[2-(4-{[2-(acetylamino)-1,3-thiazol-4-yl]methoxy}phenyl)ethyl]hydrazinecarboxamide trifluoroacetate], the IC50 in series [1] worked out at 48.5 nM; at rat VAP-1 enzyme (SSAO) it was 1.5 nM.

As to `CC(=O)Nc1nc(CCc2ccc(CSC(=O)NN)s2)cs1` [Production Example 36, S-[(5-{2-[2-(acetylamino)-1,3-thiazol-4-yl]ethyl}thiophen-2-yl)methyl]hydrazinecarbothioate hydrochloride], the values for the IC50 (in series [1]; against rat VAP-1 enzyme (SSAO)) were 2.3 nM and 0.6 nM, respectively.
